≈ marks a conversion by molar mass, not a printed value. Like-named read-outs stand apart in the source and are kept apart here.
Tests used:
[1] = tested on: methicillin-resistant Staphylococcus aureus (MRSA) isolates; assay: MIC measured by agar dilution method (CLSI); assay type: cell-based; settings: for MIC: Staphylococcus aureus, MRSA
Method: (§1) Spontaneous mutation and minimal inhibit concentration (MIC) tested by agar dilution method, the above compounds are respectively prepared into a stock solution (100X) with a concentration 100 times the highest final concentration in corresponding solvents and used on the same day. Before use, I is further diluted with DMSO; and oxacillin, rifampicin and levofloxacin are further diluted with water.
(§2) Bacterial isolates: Staphylococcus aureus isolates are retrieved from the −80° C. storage room of Micromyx Culture Collection, thawed, plated onto Tryptic Soy Agar+5% sheep blood (Remel; Lenexa, Kans.), and then incubated aerobically at 35° C. overnight. S. aureus ATCC 29213 (MRSA; MMX 0100) was included during testing only for the purpose of quality control. Test Media: The isolates were tested in both the agar dilution MIC assay and the spontaneous mutation assay using Mueller-Hinton Agar (MHA; BD/BBL; Lot No. 6229829 & 4216798). Inocula of each isolate were suspended in cation-adjusted Mueller-Hinton Broth (CAMHB) (BD/BBL; Lot Nos. 5257869 & 6258541). Sodium chloride (Sigma-Aldrich; Lot No. SLBL0434V) was added to CAMHB at a final concentration of 2% when testing oxacillin. Dilutions of bacterial cell suspensions for the purpose of performing colony counts were also made in CAMHB.
(§3) MIC measured by agar dilution method: according to the recommendation from the Clinical and Laboratory Standards Institute (CLSI), the MIC value is measured by the agar dilution method. […] Each test agent was combined with molten MHA agar (50-55° C.) at a ratio of 0.2 mL of 100× test agent to 19.8 mL agar in a sterile tube, mixed gently, and then poured into a sterile petri plate (BD Falcon). Plates were allowed to solidify at room temperature. A 0.5 McFarland standard bacterial suspension was prepared, diluted 1:10 in CAMHB, and transferred to the wells of a stainless steel replicator block before stamping onto plates containing drug, resulting in 10^4 CFU/spot. After allowing the inoculum to dry on the surface of the agar, the plates were inverted, incubated aerobically at 35° C. for 20-24 hr, and inspected for growth.

[2] = tested on: Staphylococcus aureus ATCC 29213; assay: MIC measured by agar dilution method, quality control strain; assay type: cell-based; settings: strain 100, MSSA QC strain
Method: as §1, §2, §3
In parallel experiments, a standard bacterium suspension with a […] turbidity of 0.5 is prepared as a standard inoculum for agar dilution analysis (10^4 CFU/point). […] In this step, the broths and drugs used in the spontaneous mutation analysis are used to confirm that the concentration of the drug stock solution can inhibit the growth of the standard inoculum. The quality of the levofloxacin stock solution is controlled by a standard inoculum and levofloxacin of 8-0.008 μg/mL, and separate agar dilution analysis is performed. […]

[3] = tested on: Staphylococcus aureus ATCC 29213; assay: MIC measured by fluid broth microdilution method (quality control); assay type: cell-based; settings: ATCC29213
[4] = tested on: Staphylococcus aureus ATCC 29213; settings: agar dilution; cited from earlier work
[5] = strain 3085, LEV^S RIF^S, agar dilution
[6] = strain 3090, LEV^R RIF^S, agar dilution
[7] = strain 3094, LEV^R RIF^S, agar dilution
[8] = strain 3098, LEV^S RIF^S, agar dilution
[9] = strain 3265, LEV^R RIF^S, agar dilution
[10] = strain 3266, LEVR RIFS, agar dilution
[11] = strain 3270, LEV^R RIF^S, agar dilution
[12] = strain 3271, LEV^R RIF^S, agar dilution
[13] = strain 3277, LEV^S RIF^S, agar dilution
[14] = strain 3278, LEV^S RIF^S, agar dilution
[15] = strain 6312, LEV^R RIF^S, agar dilution
[16] = strain 6313, LEV^R RIF^S, agar dilution
[17] = strain 6315, LEV^R RIF^S, agar dilution
[18] = strain 6498, LEV^R RIF^S, agar dilution
[19] = strain 6501, LEV^R RIF^S, agar dilution
[20] = strain 6505, LEV^R RIF^S, agar dilution
[21] = strain 7771, LEV^R RIF^S, agar dilution
[22] = strain 7772, LEV^S RIF^S, agar dilution
[23] = strain 7773, LEV^R RIF^S, agar dilution
[24] = strain 7774, LEV^R RIF^S, agar dilution
[25] = strain 7775, LEV^R, agar dilution

SMILES	MIC [1, 5] [µg/mL]	MIC [1, 6] [µg/mL]	MIC [1, 7] [µg/mL]	MIC [1, 8] [µg/mL]	MIC [1, 9] [µg/mL]	MIC [1, 10] [µg/mL]	MIC [1, 11] [µg/mL]	MIC [1, 12] [µg/mL]	MIC [1, 13] [µg/mL]	MIC [1, 14] [µg/mL]	MIC [1, 15] [µg/mL]	MIC [1, 16] [µg/mL]	MIC [1, 17] [µg/mL]	MIC [1, 18] [µg/mL]	MIC [1, 19] [µg/mL]	MIC [1, 20] [µg/mL]	MIC [1, 21] [µg/mL]	MIC [1, 22] [µg/mL]	MIC [1, 23] [µg/mL]	MIC [1, 24] [µg/mL]	also measured
C[C@H]1COc2c(N3CCN(C)CC3)c(F)cc3c(=O)c(C(=O)O)cn1c23 [Levofloxacin]	0.25 (≈ 0.692 µM)	32 (≈ 88.6 µM)	> 64	0.25 (≈ 0.692 µM)	64 (≈ 177 µM)	64 (≈ 177 µM)	4 (≈ 11.1 µM)	4 (≈ 11.1 µM)	0.25 (≈ 0.692 µM)	0.25 (≈ 0.692 µM)	16 (≈ 44.3 µM)	16 (≈ 44.3 µM)	> 64	8 (≈ 22.1 µM)	8 (≈ 22.1 µM)	4 (≈ 11.1 µM)	> 64	0.25 (≈ 0.692 µM)	8 (≈ 22.1 µM)	> 64	MIC ([1]; read-out: MIC over all strains under test): 0.25 to 64 µg/mL (≈ 0.692 to 177 µM); MIC [1, 25]: 16 µg/mL (≈ 44.3 µM); MIC [2]: 0.25 µg/mL (≈ 0.692 µM); MIC [3]: 0.25 µg/mL (≈ 0.692 µM)
Cc1onc(-c2ccccc2)c1C(=O)N[C@@H]1C(=O)N2[C@@H]1SC(C)(C)[C@@H]2C(=O)O [Oxacillin]	> 8	> 8	> 8	> 8	> 8	> 8	> 8	> 8	> 8	> 8	> 8	> 8	> 8	> 8	> 8	> 8	> 8	> 8	> 8	> 8	sensitivity of the strains (resistant / sensitive) [1]: resistant; MIC [1, 25]: > 8 µg/mL; MIC [2]: 0.25 µg/mL (≈ 0.623 µM); MIC quality control range of CLSI [4]: 0.12 to 0.5 µg/mL

— patent US20220087990A1, “APPLICATION OF RIFAMYCIN-QUINOLIZIDONE CONJUGATE MOLECULE AND PHARMACEUTICALLY ACCEPTABLE SALT THEREOF” (priority 2019, published 2022)
